Measurements published in patent US8460925B2, “Methods for culturing mammalian taste cells” (priority 2004, dated 2013).

What was measured:
cultured taste cells = experiment: Response of cultured taste cells to taste stimuli by Ca-imaging (fura-2); format: cell-based, rat; conditions: elevation of intracellular calcium
Method: Taste cells employed are isolated as described in Example 1 and cultured for 1 week or 2 months on rat tail collagen type 1-coated coverslips.
(§1) Ca-imaging is performed as follows. The coverslips are incubated for 15-30 minutes with calcium sensitive dye in Modified MHNK ringer's solution (80 mM NaCl, 5 mM KCl, 1 mM MgCl2, 1 mM CaCl2, 1 mM Na-pyruvate, and 20 mM Hepes-Na, pH 7.2 with osmolarity adjusted to 300-310 by 5M NaCl) supplemented with […] (Molecular Probes Inc., Eugene, Oreg.) and 20 mg/ml PLURONIC® F127 (Molecular Probes Inc.). The calcium sensitive dye fura-2 AM is cleaved to fura-2 which is fluorescent and can be detected.
After incubation, coverslips are placed in a recording chamber and continuously bathed with Modified MHNK Ringer's solution that is applied as superfusion.
The stimuli (Denatonium benzoate 2 mM and 0.5 mM, Acesulfame K 250 ppm, Monosodium glutamate (MSG) 3 mM, Cycloheximide 25 μM, Glycine 125 mM, and High K buffer (modified Modified MHNK ringer's solution with 5 mM NaCl, 80 mM KCl, 1 mM MgCl2, 1 mM CaCl2, 1 mM Na-pyruvate, and 20 mM Hepes-Na, pH 7.2 with osmolarity adjusted to 300-310 by 5M NaCl) are applied to the coverslip by switching the superfusion to the stimulus solution, which allows for a complete change of bath solutions in the chamber within 10 seconds.
Calcium imaging recordings are performed using standard imaging techniques as described by Restrepo D., M. Zviman and N. E. Rawson, “The measurement of intracellular calcium in chemosensory cells”, in: Methods in Chemosensory Research, Ed. by A. Spielman and J. Brand. CRC Press, 1995. […] Emitted light from fura-2 in the cells under 200× magnification is filtered at 510 nm and recorded with a cooled CCD camera (Olympix, Perkin Elmer Life Sciences, Bethesda Md.). The excitation wavelength is 340-380 nm and the emission wavelength is 510 nm using a wide band filter. Images are digitalized using a Merlin Imaging Workstation (Perkin Elmer Life Sciences, Bethesda Md.), which controls illuminator, camera, and acquisition, and performs the image ratioing and the display of pseudocolor images.
Stimuli are diluted in Modified MHNK ringer's solution and applied via a gravity-flow superfusion apparatus for about 10-60 seconds, depending on the stimulus. […] Typically several cells are tested.

mouse T2R5 = target: T1, mouse T2R5 (Mus musculus, UniProt Q9JKT4); experiment: Calcium imaging of cultured taste cells transfected with mT2R5; format: cell-based
T1 construct: sst (N-terminal export tag; by own knowledge of Bufe et al. 2002, the first 45 residues of rat somatostatin receptor type 3) (N); expressed in transfected cells; host or cells: primary cultured rat taste cells on rat tail collagen-1-coated coverslips
T1 sequence (Q9JKT4 1-300): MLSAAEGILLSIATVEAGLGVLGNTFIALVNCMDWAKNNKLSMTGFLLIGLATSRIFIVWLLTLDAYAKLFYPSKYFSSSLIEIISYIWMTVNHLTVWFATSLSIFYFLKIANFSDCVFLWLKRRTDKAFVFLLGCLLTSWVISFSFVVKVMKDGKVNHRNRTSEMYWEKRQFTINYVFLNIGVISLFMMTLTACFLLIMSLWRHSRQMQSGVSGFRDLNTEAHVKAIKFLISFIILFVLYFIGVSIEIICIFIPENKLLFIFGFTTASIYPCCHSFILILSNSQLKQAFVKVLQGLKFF
Method: as §1
(§2) Calcium imaging recordings are performed using standard imaging techniques as described by Restrepo D., M. Zviman and N. E. Rawson, “The measurement of intracellular calcium in chemosensory cells”, in: Methods in Chemosensory Research, Ed. by A. Spielman and J. Brand. CRC Press, 1995. Illumination is provided by a LSR SPECTRAMASTER monochromator coupled to the microscope. Emitted light from fura-2 in the cells under 200× magnification is filtered at 510 nm and recorded with a cooled CCD camera (Olympix, Perkin Elmer Life Sciences, Bethesda Md.). The excitation wavelength is 340-380 nm and the emission wavelength is 510 nm using a wide band filter. Images are digitalized using a Merlin Imaging Workstation (Perkin Elmer Life Sciences, Bethesda Md.), which controls illuminator, camera, and acquisition, and performs the image ratioing and the display of pseudocolor images. […]

human T2R16 = target: T2, human T2R16 (Homo sapiens, UniProt Q9NYV7); experiment: Calcium imaging of cultured taste cells transfected with hT2R16; format: cell-based
T2 construct: expressed in transfected cells; host or cells: primary cultured rat taste cells on rat tail collagen-1-coated coverslips
T2 sequence (Q9NYV7 1-291): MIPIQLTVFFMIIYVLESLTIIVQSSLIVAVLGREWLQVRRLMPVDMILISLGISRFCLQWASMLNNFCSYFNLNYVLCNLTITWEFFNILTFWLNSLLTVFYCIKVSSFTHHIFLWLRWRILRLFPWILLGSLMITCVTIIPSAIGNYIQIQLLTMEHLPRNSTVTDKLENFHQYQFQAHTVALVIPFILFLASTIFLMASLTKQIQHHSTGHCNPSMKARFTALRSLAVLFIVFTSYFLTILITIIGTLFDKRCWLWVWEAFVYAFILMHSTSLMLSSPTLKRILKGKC
Method: as §1, §2

| Structure (SMILES) | activation of cultured taste cells by taste stimulants as shown by calcium imaging (cultured taste cells) | effective concentration for increase in intracellular calcium (mouse T2R5) | effective concentration for increase in intracellular calcium (human T2R16) |
| --- | --- | --- | --- |
| CC1=CC(=O)NS(=O)(=O)O1.[K] [Acesulfame K, 6-Methyl-1,2,3-oxathiazin-4(3H)-one 2,2-dioxide potassium salt] | activated | – | – |
| CC1CC(C)C(=O)C(C(O)CC2CC(=O)NC(=O)C2)C1 (stereo not shown) [Cycloheximide, 3-[2-(3,5-Dimethyl-2-oxocyclohexyl)-2-hydroxyethyl]glutarimide] | activated | 1 µM | – |
| CC[N+](CC)(CC(=O)Nc1c(C)cccc1C)Cc1ccccc1 [Denatonium, Denatonium benzoate] | activated | – | – |
| NCC(=O)O [Glycine] | activated | – | – |
| N[C@@H](CCC(=O)O)C(=O)[O-].[Na+] [MSG, Monosodium glutamate] | activated | – | – |
| OC[C@H]1O[C@@H](Oc2ccccc2)[C@H](O)[C@@H](O)[C@@H]1O [phenyl-beta-D-glucopyranoside] | – | – | 1 milliM |
